Laboratory results taken from patent publication US20090069320A1, “Substituted 4-Amino-Quinazoline Compounds with Metabotropic Glutamate Receptor Regulating Activity and Uses Thereof” (Gruenenthal GmbH, priority 2006, published 2009).
Counter-ions that a name gives are not always drawn.

biological target: T1, mGluR5 receptor (Sus scrofa, UniProt I3LUI7); experiment: [3H]-MPEP mGluR5 receptor binding assay (pig brain homogenate); conditions: 5 nM [3H]-MPEP, read-out: IC50 mGluR5 Receptor (pig) [^3H]-MPEP Bond
T1 construct: 450 μg of protein from brain homogenate with 5 nM ^3[H]-MPEP; from tissue; host or cells: pig brain halves without medulla, cerebellum and pons
Summary of the method: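 Compounds at 10 μM competed with 5 nM [3H]-MPEP for binding to pig brain membranes (450 μg protein) for 60 min at room temperature in pH 8.0 Hepes buffer. Bound radioactivity was collected on glass-fibre filters and read by β-counting, with 10 μM unlabelled MPEP giving non-specific binding.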

T1 sequence (I3LUI7 19-1212): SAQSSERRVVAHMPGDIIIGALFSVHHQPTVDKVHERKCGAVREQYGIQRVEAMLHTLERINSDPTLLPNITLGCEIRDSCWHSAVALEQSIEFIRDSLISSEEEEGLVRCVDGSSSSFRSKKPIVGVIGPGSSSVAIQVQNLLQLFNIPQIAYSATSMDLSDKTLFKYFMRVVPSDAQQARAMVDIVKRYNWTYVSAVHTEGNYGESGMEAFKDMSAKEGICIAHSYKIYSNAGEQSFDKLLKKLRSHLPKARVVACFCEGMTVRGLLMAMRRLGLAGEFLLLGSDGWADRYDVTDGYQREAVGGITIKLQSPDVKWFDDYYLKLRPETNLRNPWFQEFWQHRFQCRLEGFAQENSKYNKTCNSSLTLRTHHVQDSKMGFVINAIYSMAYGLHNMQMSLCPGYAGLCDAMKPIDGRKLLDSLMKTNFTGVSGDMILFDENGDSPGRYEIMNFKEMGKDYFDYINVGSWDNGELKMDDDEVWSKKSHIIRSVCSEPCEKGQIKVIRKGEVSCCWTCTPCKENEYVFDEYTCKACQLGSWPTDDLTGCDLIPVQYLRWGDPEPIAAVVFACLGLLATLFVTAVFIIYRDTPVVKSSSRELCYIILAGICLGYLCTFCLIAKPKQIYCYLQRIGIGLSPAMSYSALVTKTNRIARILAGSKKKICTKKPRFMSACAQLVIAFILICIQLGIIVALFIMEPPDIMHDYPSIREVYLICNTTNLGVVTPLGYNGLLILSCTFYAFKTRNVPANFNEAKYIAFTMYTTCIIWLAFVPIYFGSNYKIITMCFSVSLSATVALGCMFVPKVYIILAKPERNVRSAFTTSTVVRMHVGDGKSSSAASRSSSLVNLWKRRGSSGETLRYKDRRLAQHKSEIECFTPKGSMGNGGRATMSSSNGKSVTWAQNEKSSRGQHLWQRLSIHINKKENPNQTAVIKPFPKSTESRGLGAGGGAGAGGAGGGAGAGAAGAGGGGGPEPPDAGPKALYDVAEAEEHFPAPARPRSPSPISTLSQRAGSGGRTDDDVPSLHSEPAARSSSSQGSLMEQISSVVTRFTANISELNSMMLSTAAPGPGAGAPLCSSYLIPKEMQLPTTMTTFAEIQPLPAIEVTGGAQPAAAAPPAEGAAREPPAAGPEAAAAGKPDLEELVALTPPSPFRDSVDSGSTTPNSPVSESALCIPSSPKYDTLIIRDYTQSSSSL

**Q.** How did the IC50 turn out when `O=C1COCC(=O)N1Cc1cc(-c2ccc3ncnc(NC4CC4)c3c2)ccc1F` [Example 189, 4-(5-(4-(cyclopropylamino)quinazolin-6-yl)-2-fluorobenzyl)morpholine-3,5-dione] was run?
**A.** 0.21 µM

**Q.** `CC(=O)N(Cc1cccc(-c2ccc3ncnc(NC4CC4)c3c2)c1F)C1CC1` [Example 191, N-cyclopropyl-N-(3-(4-(cyclopropylamino)quinazolin-6-yl)-2-fluorobenzyl)acetamide] was tested. Which IC50 did it give?
**A.** 0.67 µM

**Q.** For `O=C1CCC(=O)N1Cc1cc(-c2ccc3ncnc(NC4CC4)c3c2)ccc1F` [Example 193, 1-(5-(4-(cyclopropylamino)quinazolin-6-yl)-2-fluorobenzyl)pyrrolidine-2,5-dione], which IC50 is on record?
**A.** 0.27 µM

**Q.** How did the IC50 turn out when `N#CCC(=O)N(Cc1cccc(-c2ccc3ncnc(NC4CC4)c3c2)c1F)C1CC1` [Example 197, 2-cyano-N-cyclopropyl-N-[3-(4-cyclopropylamino-quinazolin-6-yl)-2-fluoro-benzyl]-acetamide] was run?
**A.** 0.66 µM

**Q.** Which IC50 does the source give for `CNc1ncnc2ccc(-c3cccc(CN4C(=O)CCC4=O)c3)cc12` [Example 198, 1-[3-(4-methylamino-quinazolin-6-yl)-benzyl]-pyrrolidine-2,5-dione] here?
**A.** 5.19 µM

**Q.** Which IC50 does the source give for `O=C1CCC(=O)N1Cc1cccc(-c2ccc3ncnc(NCc4ccccc4)c3c2)c1` [Example 199, 1-(3-(4-(benzylamino)quinazolin-6-yl)benzyl)pyrrolidine-2,5-dione] here?
**A.** 1.25 µM

**Q.** How did the IC50 turn out when `O=C(CC(F)(F)F)N(Cc1cccc(-c2ccc3ncnc(NC4CC4)c3c2)c1)C1CC1` [Example 205, N-cyclopropyl-N-[3-(4-cyclopropylamino-quinazolin-6-yl)-benzyl]-3,3,3-trifluoro-propionamide; hydrochloride] was run?
**A.** 0.33 µM

**Q.** With `CC(=O)N(Cc1cccc(-c2ccc3ncnc(NC4CC4)c3c2)c1)c1ccccc1` [Example 207, N-(3-(4-(cyclopropylamino)quinazolin-6-yl)benzyl)-N-phenylacetamide hydrochloride] as the molecule, how does the IC50 read?
**A.** 7.17 µM

**Q.** With `CS(=O)(=O)N(Cc1cccc(-c2ccc3ncnc(NC4CC4)c3c2)c1)C1CCCC1` [Example 210, N-cyclopentyl-N-(3-(4-(cyclopropylamino)quinazolin-6-yl)benzyl)methane sulfonamide] as the molecule, how does the IC50 read?
**A.** 6.07 µM

**Q.** How did the IC50 turn out when `O=C1COCC(=O)N1Cc1cccc(-c2ccc3ncnc(NC4CC4)c3c2)c1` [Example 212, 4-(3-(4-(cyclopropylamino)quinazolin-6-yl)benzyl)morpholine-3,5-dione] was run?
**A.** 0.1 µM

**Q.** Which IC50 does the source give for `CC(=O)N(CCc1ccccc1)Cc1cccc(-c2ccc3ncnc(NC4CC4)c3c2)c1` [Example 214, N-[3-(4-cyclopropylamino-quinazolin-6-yl)-benzyl]-N-phenethyl-acetamide] here?
**A.** 6.92 µM

**Q.** For `CS(=O)(=O)N(Cc1cccc(-c2ccc3ncnc(NC4CC4)c3c2)c1)Cc1ccco1` [Example 215, N-(3-(4-(cyclopropylamino)quinazolin-6-yl)benzyl)-N-(furan-2-yl-methyl)methane sulfonamide], which IC50 is on record?
**A.** 3.61 µM

**Q.** With `CC(=O)N(Cc1cccc(-c2ccc3ncnc(NC4CC4)c3c2)c1)Cc1ccco1` [Example 216, N-[3-(4-cyclopropylamino-quinazolin-6-yl)-benzyl]-N-furan-2-yl-methyl-acetamide] as the molecule, how does the IC50 read?
**A.** 1.5 µM

**Q.** For `O=C1CCCN1Cc1cccc(-c2ccc3ncnc(NC4CC4)c3c2)c1` [Example 217, 1-[3-(4-cyclopropylamino-quinazolin-6-yl)-benzyl]-pyrrolidine-2-one; hydrochloride], which IC50 is on record?
**A.** 0.51 µM

**Q.** For `CCCCN(Cc1cccc(-c2ccc3ncnc(NC4CC4)c3c2)c1)C(C)=O` [Example 218, N-butyl-N-[3-(4-cyclopropylamino-quinazolin-6-yl)-benzyl]-acetamide; hydrochloride], which IC50 is on record?
**A.** 2.99 µM

**Q.** With `O=C1CCC(c2ccccc2)C(=O)N1Cc1cccc(-c2ccc3ncnc(NC4CC4)c3c2)c1` (centres unmarked) [Example 220, 1-[3-(4-cyclopropylamino-quinazolin-6-yl)-benzyl]-3-phenyl-piperidine-2,6-dione; hydrochloride] as the molecule, how does the IC50 read?
**A.** 4.25 µM

**Q.** `CC(=O)N(C)Cc1cccc(-c2ccc3ncnc(NC4CC4)c3c2)c1` [Example 221, N-[3-(4-cyclopropylamino-quinazolin-6-yl)-benzyl]-N-methyl-acetamide] was tested. Which IC50 did it give?
**A.** 5.36 µM

**Q.** Which IC50 does the source give for `CS(=O)(=O)N(Cc1ccccc1)Cc1cccc(-c2ccc3ncnc(NC4CC4)c3c2)c1` [Example 222, N-benzyl-N-(3-(4-(cyclopropylamino)quinazolin-6-yl)benzyl)methane sulfonamide] here?
**A.** 4.61 µM

**Q.** For `O=S(=O)(CC(F)(F)F)N(Cc1cccc(-c2ccc3ncnc(NC4CC4)c3c2)c1)C1CC1` [Example 225, N-cyclopropyl-N-(3-(4-(cyclopropylamino)quinazolin-6-yl)benzyl)-2,2,2-trifluoroethane sulfonamide], which IC50 is on record?
**A.** 1.48 µM

**Q.** How did the IC50 turn out when `O=S(=O)(c1ccc(C(F)(F)F)cc1)N(Cc1cccc(-c2ccc3ncnc(NC4CC4)c3c2)c1)C1CC1` [Example 226, N-cyclopropyl-N-(3-(4-(cyclopropylamino)quinazolin-6-yl)benzyl)-4-(trifluoromethyl)benzole sulfonamide] was run?
**A.** 2.64 µM

**Q.** Which IC50 does the source give for `O=S(=O)(c1ccccc1)N(Cc1cccc(-c2ccc3ncnc(NC4CC4)c3c2)c1)C1CC1` [Example 227, N-cyclopropyl-N-(3-(4-(cyclopropylamino)quinazolin-6-yl)benzyl)benzole sulfonamide] here?
**A.** 2.57 µM

**Q.** With `O=C1C2CCCCC2C(=O)N1Cc1cccc(-c2ccc3ncnc(NC4CC4)c3c2)c1` (centres unmarked) [Example 228, 2-[3-(4-cyclopropylamino-quinazolin-6-yl)-benzyl]-hexahydro-isoindole-1,3-dione; hydrochloride] as the molecule, how does the IC50 read?
**A.** 8.7 µM

**Q.** Which IC50 does the source give for `O=C1CC(c2ccccc2)C(=O)N1Cc1cccc(-c2ccc3ncnc(NC4CC4)c3c2)c1` (centres unmarked) [Example 229, 1-[3-(4-cyclopropylamino-quinazolin-6-yl)-benzyl]-3-phenyl-pyrrolidine-2,5-dione; hydrochloride] here?
**A.** 3.5 µM

same assay, conditions: 10 μM compound, 5 nM [3H]-MPEP

**Q.** How did the “% Inhibition of mGluR5 Receptor (pig) [^3H]-MPEP Bond at 10 μM” value turn out when `CN(Cc1cccc(-c2ccc3ncnc(NC4CC4)c3c2)c1)S(C)(=O)=O` [Example 223, N-(3-(4-(cyclopropylamino)quinazolin-6-yl)benzyl)-N-methyl methane sulfonamide] was run?
**A.** 51%

same assay, conditions: 10 μM compound, 5 nM [3H]-MPEP, read-out: % Inhibition of mGluR5 Receptor (pig) [^3H]-MPEP Bond at 10 μM

**Q.** For `N#Cc1cccc(C(=O)N(Cc2cccc(-c3ccc4ncnc(NC5CC5)c4c3)c2)C2CC2)c1` [Example 176, 3-cyano-N-cyclopropyl-N-[3-(4-cyclopropylamino-quinazolin-6-yl)-benzyl]-benzamide], which inhibition at 10 µM is on record?
**A.** 76%

**Q.** With `O=C(c1ccc(C(F)(F)F)cc1F)N(Cc1cccc(-c2ccc3ncnc(NC4CC4)c3c2)c1)C1CC1` [Example 177, N-cyclopropyl-N-[3-(4-cyclopropylamino-quinazolin-6-yl)-benzyl]-2-fluoro-4-trifluoromethyl-benzamide] as the molecule, how does the inhibition at 10 µM read?
**A.** 97%

**Q.** For `O=C(c1cccs1)N(Cc1cccc(-c2ccc3ncnc(NC4CC4)c3c2)c1)C1CC1` [Example 178, thiophene-2-carboxylic acid cyclopropyl-[3-(4-cyclopropylamino-quinazolin-6-yl)-benzyl]-amide], which inhibition at 10 µM is on record?
**A.** 84%

**Q.** With `O=C(c1ccc(Cl)nc1)N(Cc1cccc(-c2ccc3ncnc(NC4CC4)c3c2)c1)C1CC1` [Example 179, 6-chloro-N-cyclopropyl-N-[3-(4-cyclopropylamino-quinazolin-6-yl)-benzyl]-nicotinamide] as the molecule, how does the inhibition at 10 µM read?
**A.** 89%

**Q.** Which inhibition at 10 µM does the source give for `COC(=O)CN(Cc1cccc(-c2ccc3ncnc(NC4CC4)c3c2)c1)C(=O)CC#N` [Example 190, methyl 2-(2-cyano-N-(3-(4-(cyclopropylamino)quinazolin-6-yl)benzyl)acetamido)acetate] here?
**A.** 58%

**Q.** `O=C1C=CC(=O)N1Cc1cc(-c2ccc3ncnc(NC4CC4)c3c2)ccc1F` [Example 192, 1-(5-(4-(cyclopropylamino)quinazolin-6-yl)-2-fluorobenzyl)-1H-pyrrole-2,5-dione] was tested. Which inhibition at 10 µM did it give?
**A.** 41%

**Q.** How did the inhibition at 10 µM turn out when `N#CCC(=O)N(Cc1cccc(-c2ccc3ncnc(NC4CC4)c3c2)c1)c1cccnc1` [Example 195, 2-cyano-N-[3-(4-cyclopropylamino-quinazolin-6-yl)-benzyl]-N-pyridin-3-yl-acetamide] was run?
**A.** 40%

**Q.** `CC(=O)N(CC#N)Cc1cccc(-c2ccc3ncnc(NC4CC4)c3c2)c1` [Example 200, N-cyanomethyl-N-[3-(4-cyclopropylamino-quinazolin-6-yl)-benzyl]-acetamide] was tested. Which inhibition at 10 µM did it give?
**A.** 40%

**Q.** `CC(=O)OCN(Cc1cccc(-c2ccc3ncnc(NC4CC4)c3c2)c1)C(C)=O` [Example 203, {acetyl-[3-(4-cyclopropylamino-quinazolin-6-yl)-benzyl]-amino}-methyl acetate] was tested. Which inhibition at 10 µM did it give?
**A.** 39%

**Q.** For `O=S1(=O)CCCN1Cc1cccc(-c2ccc3ncnc(NC4CC4)c3c2)c1` [Example 206, cyclopropyl-{6-[3-(1,1-dioxo-1λ^6-isothiazolidin-2-ylmethyl)-phenyl]-quinazoline-4-yl}-amine; hydrochloride], which inhibition at 10 µM is on record?
**A.** 34%

**Q.** With `CC(=O)N(Cc1cccc(-c2ccc3ncnc(NC4CC4)c3c2)c1)C1CCCC1` [Example 209, N-cyclopentyl-N-(3-(4-(cyclopropylamino)quinazolin-6-yl)benzyl)acetamide] as the molecule, how does the inhibition at 10 µM read?
**A.** 63%

**Q.** `COCCN(Cc1cccc(-c2ccc3ncnc(NC4CC4)c3c2)c1)C(C)=O` [Example 213, N-(3-(4-(cyclopropylamino)quinazolin-6-yl)benzyl)-N-(2-methoxyethyl)acetamide] was tested. Which inhibition at 10 µM did it give?
**A.** 32%

**Q.** With `CC(=O)N(Cc1ccccc1)Cc1cccc(-c2ccc3ncnc(NC4CC4)c3c2)c1` [Example 219, N-benzyl-N-[3-(4-cyclopropylamino-quinazolin-6-yl)-benzyl]-acetamide; hydrochloride] as the molecule, how does the inhibition at 10 µM read?
**A.** 45%

same assay, conditions: IC50 mGluR5 Receptor (pig) [^3H]-MPEP Bond, 5 nM [3H]-MPEP

**Q.** `O=C(CF)N(Cc1cccc(-c2ccc3ncnc(NC4CC4)c3c2)c1)C1CC1` [Example 208, N-cyclopropyl-N-[3-(4-cyclopropylamino-quinazolin-6-yl)-benzyl]-2-fluoro-acetamide] was tested. Which IC50 did it give?
**A.** 0.12 µM
